Experiments:
[1] = target: T1, human HIF-PHD3 (Homo sapiens, UniProt Q9H6Z9); experiment: HIF-PHD inhibition assay (fluorescence polarization), human HIF-PHD3; format: biochemical; settings: 2-oxoglutaric acid 166 μmol/L
T1 construct: purchased CrystalGenomics Ltd
Procedure, shortened: (§1)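 FP readout; enzyme activity = mP post-enzyme − mP pre-enzyme. FAM-labelled probe, ACA spacer.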

[2] = target: T2, human HIF-PHD2 (Homo sapiens, UniProt Q9GZT9); experiment: HIF-PHD inhibition assay (fluorescence polarization), human HIF-PHD2; format: biochemical; settings: 2-oxoglutaric acid 3.33 μmol/L
T2 construct: purchased CrystalGenomics Ltd
T2 sequence (Q9GZT9 2-426 limits assumed): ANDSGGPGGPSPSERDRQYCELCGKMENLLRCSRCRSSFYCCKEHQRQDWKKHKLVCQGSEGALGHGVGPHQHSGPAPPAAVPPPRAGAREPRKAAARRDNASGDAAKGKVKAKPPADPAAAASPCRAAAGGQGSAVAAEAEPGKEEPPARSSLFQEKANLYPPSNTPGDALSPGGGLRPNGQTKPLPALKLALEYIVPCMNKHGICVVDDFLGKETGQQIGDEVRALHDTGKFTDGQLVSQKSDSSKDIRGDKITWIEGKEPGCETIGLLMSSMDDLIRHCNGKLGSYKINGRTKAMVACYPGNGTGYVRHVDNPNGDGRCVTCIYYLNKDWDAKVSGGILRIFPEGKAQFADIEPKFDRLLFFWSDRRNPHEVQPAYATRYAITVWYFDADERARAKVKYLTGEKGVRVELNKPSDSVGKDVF
Procedure, shortened: as §1

[3] = test system: Hep3B cells; experiment: EPO production assay (ELISA of culture supernatant); format: cell-based; settings: Homo sapiens, 3 μmol/L test compound, 48 hours, relative to control (0.1% DMSO), read-out: EPO production stimulation rate with 3 μmol/L test compound
Method: The stimulatory effect of the compound onEPO production was determined as follows using Hep3B cells.
Cells were seeded on 96 well plates at 40000 cells/well, and the plate was incubated overnight in MEM medium containing 10% fetal bovine serum (FBS) at 37° C. under 5% CO2. The next day, the medium was replaced with MEM containing 0.5% FBS, followed by addition of test compound. The test compound was dissolved in dimethyl sulfoxide and added to the cell so that the final concentration of dimethyl sulfoxide was 0.1%. After incubation for additional 48 hours, the culture supernatant was collected, and EPO contained in the supernatant was determined using ELISA kit (EPO ELISA Kit 11-693-417-001, Roche Co.). The results were expressed as stimulation rate of EPO production (fold), which was calculated as the relative value of the EPO production with 3 μmol/L of the test compound compared to the EPO production without stimulation (control).
Stimulation rate of EPO production (fold)=(EPO production with addition of test compound)/(EPO production of control)

T1 sequence (Q9H6Z9 whole entry): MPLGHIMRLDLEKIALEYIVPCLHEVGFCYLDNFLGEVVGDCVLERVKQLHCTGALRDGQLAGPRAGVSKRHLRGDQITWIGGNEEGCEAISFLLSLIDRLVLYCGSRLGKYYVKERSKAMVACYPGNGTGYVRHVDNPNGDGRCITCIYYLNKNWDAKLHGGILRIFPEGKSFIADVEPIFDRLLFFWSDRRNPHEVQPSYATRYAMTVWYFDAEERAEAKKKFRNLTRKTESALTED

IC50 [1] [nM]	IC50 [2] [nM]	SMILES	fold induction at 3 µM [3]
1500	66	Cc1ccc(C(C(C)C)n2ncc3nc(-n4cc(C(=O)O)cn4)nc(O)c32)cc1 (single isomer, unassigned) [Example 26]	3.4
300	22	CCC(c1ccc(Cl)cc1)n1ncc2nc(-n3cc(C(=O)O)cn3)nc(O)c21 (single isomer, unassigned) [Example 323]	3.8
1200	290	CCC(c1ccc(C(F)(F)F)cc1)n1ncc2nc(-n3cc(C(=O)O)cn3)nc(O)c21 (single isomer, unassigned) [Example 327]	9.4
160	31	COc1ccc(Cn2ncc3nc(-n4cc(C(=O)O)cn4)nc(O)c32)cc1 [Example 3]	2.1
740	130	O=C(O)c1cnn(-c2nc(O)c3c(cnn3Cc3ccc(Cl)cc3F)n2)c1 [Example 5]	2.9
130	41	O=C(O)c1cnn(-c2nc(O)c3c(cnn3Cc3ccc(C(F)(F)F)c(Cl)c3)n2)c1 [Example 6]	6.1
320	23	O=C(O)c1cnn(-c2nc(O)c3c(cnn3Cc3ccc(Cl)c(F)c3)n2)c1 [Example 7]	3.4
240	22	O=C(O)c1cnn(-c2nc(O)c3c(cnn3Cc3ccc(F)c(Cl)c3)n2)c1 [Example 10]	3.4
230	20	O=C(O)c1cnn(-c2nc(O)c3c(cnn3Cc3ccc(Cl)cc3)n2)c1 [Example 13]	4.3
540		C[C@H](c1ccc(Cl)c(Cl)c1)n1ncc2nc(-n3cc(C(=O)O)cn3)nc(O)c21 [Example 22]	6.9
220		C[C@@H](c1ccc(Cl)c(Cl)c1)n1ncc2nc(-n3cc(C(=O)O)cn3)nc(O)c21 [Example 23]	3.2
790	65	CC[C@@H](c1ccc(Cl)c(Cl)c1)n1nc(C)c2nc(-n3cc(C(=O)O)cn3)nc(O)c21 [Example 455]	
710	110	C[C@@H](c1ccc(F)cc1)n1nc(C2CC2)c2nc(-n3cc(C(=O)O)cn3)nc(O)c21 [Example 457]	
1100	> 300	C[C@@H](c1cccc(F)c1)n1nc(C2CC2)c2nc(-n3cc(C(=O)O)cn3)nc(O)c21 [Example 458]	
430	110	C[C@@H](c1ccc(F)c(F)c1)n1nc(C2CC2)c2nc(-n3cc(C(=O)O)cn3)nc(O)c21 [Example 459]	
990	81	C[C@@H](c1ccc(F)c(Cl)c1)n1nc(C2CC2)c2nc(-n3cc(C(=O)O)cn3)nc(O)c21 [Example 462]	
> 3000	140	Cn1ncc2nc(-n3cc(C(=O)O)cn3)nc(O)c21 [Example 485]	
2200	120	CC(C)n1ncc2nc(-n3cc(C(=O)O)cn3)nc(O)c21 [Example 486]	
530	81	CCC(CC)n1ncc2nc(-n3cc(C(=O)O)cn3)nc(O)c21 [Example 487]	
840	59	CCCC(CCC)n1ncc2nc(-n3cc(C(=O)O)cn3)nc(O)c21 [Example 488]	
900	150	CC(C)C(C(C)C)n1ncc2nc(-n3cc(C(=O)O)cn3)nc(O)c21 [Example 489]	
530	41	CC(C)C[C@H](C)n1ncc2nc(-n3cc(C(=O)O)cn3)nc(O)c21 [Example 496]	
890	52	CCCC[C@H](C)n1ncc2nc(-n3cc(C(=O)O)cn3)nc(O)c21 [Example 497]	
440	51	C[C@@H](c1ccc(F)cc1Cl)n1cc2nc(-n3cc(C(=O)O)cn3)nc(O)c2n1 [Example 505]	

Further lines, the molecule ahead of its results:

SMILES	IC50 [1] [nM]	IC50 [2] [nM]	fold induction at 3 µM [3]
O=C(O)c1cnn(-c2nc3cnn(Cc4ccc(Cl)c(Cl)c4)c3c(=O)[nH]2)c1 [Example 1, 1-[1-(3,4-dichlorobenzyl)-7-hydroxy-1H-pyrazolo[4,3-d]pyrimidin-5-yl]-1H-pyrazole-4-carboxylic acid]	160		4.6
O=C(O)c1cnn(-c2nc(O)c3c(cnn3Cc3cc(C(F)(F)F)cc(Cl)c3F)n2)c1 [Example 4]	780	27	1.7
O=C(O)c1cnn(-c2nc(O)c3c(cnn3Cc3cc(F)cc(C(F)(F)F)c3)n2)c1 [Example 8]	560	48	5.4
O=C(O)c1cnn(-c2nc(O)c3c(cnn3Cc3cccc(C(F)(F)F)c3)n2)c1 [Example 9]	410	33	2.8
O=C(O)c1cnn(-c2nc(O)c3c(cnn3Cc3cccc(OC(F)(F)F)c3)n2)c1 [Example 11]	470	62	2.5
O=C(O)c1cnn(-c2nc(O)c3c(cnn3Cc3ccc(F)c(C(F)(F)F)c3)n2)c1 [Example 12]	> 3000	44	2.3
O=C(O)c1cnn(-c2nc3cnn(Cc4ccc(-c5ccccc5)cc4)c3c(=O)[nH]2)c1 [Example 55]	24		34
O=C(O)c1cnn(-c2nc3cnn(Cc4ccc(-c5ccccc5F)c(F)c4)c3c(=O)[nH]2)c1 [Example 93]	130		23
Cc1ccc(C(C)(C)Cn2ncc3nc(-n4cc(C(=O)O)cn4)nc(O)c32)cc1 [Example 119]		240	3.7
Cc1nn(CC2CCCCC2)c2c(O)nc(-n3cc(C(=O)O)cn3)nc12 [Example 230]		83	2
O=C(O)c1cnn(-c2nc3cn(Cc4ccc(-c5ccccc5)cc4)nc3c(=O)[nH]2)c1 [Example 237]	38		4.3
Cc1nn([C@@H](C)c2cc(F)ccc2F)c2c(O)nc(-n3cc(C(=O)O)cn3)nc12 [Example 453]	1500	250	
C[C@@H](c1ccc(C(F)(F)F)cc1)n1nc(C2CC2)c2nc(-n3cc(C(=O)O)cn3)nc(O)c21 [Example 456]	430	53	
C[C@@H](c1cc(F)ccc1F)n1nc(C2CC2)c2nc(-n3cc(C(=O)O)cn3)nc(O)c21 [Example 461]	1600	230	
C[C@@H](c1ccc(C(F)(F)F)cc1)n1nc(C(F)(F)F)c2nc(-n3cc(C(=O)O)cn3)nc(O)c21 [Example 463]	930	65	
O=C(O)c1cnn(-c2nc(O)c3c(n2)c(F)nn3CC2CCCCCC2)c1 [Example 464]	440	17	

SMILES	IC50 [1] [nM]	IC50 [2] [nM]	fold induction at 3 µM [3]
C[C@H](C1CCCCC1)n1nc(F)c2nc(-n3cc(C(=O)O)cn3)nc(O)c21 [Example 469]	1200	76	
Cc1nn(CC2CCC(F)(F)CC2)c2c(O)nc(-n3cc(C(=O)O)cn3)nc12 [Example 475]	270	34	
C[C@H]1CC[C@H](n2nc(F)c3nc(-n4cc(C(=O)O)cn4)nc(O)c32)CC1 [Example 479]	260	42	
CC[C@H]1CC[C@H](n2nc(F)c3nc(-n4cc(C(=O)O)cn4)nc(O)c32)CC1 [Example 480]	670	47	
CC1(C)CCC(n2nc(F)c3nc(-n4cc(C(=O)O)cn4)nc(O)c32)CC1 [Example 481]	480	71	
O=C(O)c1cnn(-c2nc(O)c3c(n2)c(F)nn3C2CCCCCCC2)c1 [Example 482]	1300	43	
Cc1nn([C@H]2CC[C@H](C)CC2)c2c(O)nc(-n3cc(C(=O)O)cn3)nc12 [Example 483]	1200	110	
CC(C)CC(CC(C)C)n1ncc2nc(-n3cc(C(=O)O)cn3)nc(O)c21 [Example 490]	1100	94	
CC(C)(C)Cn1ncc2nc(-n3cc(C(=O)O)cn3)nc(O)c21 [Example 491]	630	99	
CCC(C)(C)Cn1ncc2nc(-n3cc(C(=O)O)cn3)nc(O)c21 [Example 492]	440	110	
CCC(CC)Cn1ncc2nc(-n3cc(C(=O)O)cn3)nc(O)c21 [Example 494]	870	89	
CC(C)(C)Cn1nc(F)c2nc(-n3cc(C(=O)O)cn3)nc(O)c21 [Example 499]	760	130	
Cc1nn(CC(C)(C)C)c2c(O)nc(-n3cc(C(=O)O)cn3)nc12 [Example 500]	750	> 300	
Cn1nc(C2CCCCC2)c2nc(-n3cc(C(=O)O)cn3)nc(O)c21 [Example 501]	> 3000	> 300	
Cn1nc(-c2ccccc2)c2nc(-n3cc(C(=O)O)cn3)nc(O)c21 [Example 502]	1200	> 300	
Cn1nc(Cc2ccccc2)c2nc(-n3cc(C(=O)O)cn3)nc(O)c21 [Example 503]	> 3000	> 300	
